Patent US20120157401A1, “METHODS FOR TREATING NEUROFIBROMATOSIS” (PTC Therapeutics, Inc., priority 2009, published 2012)
Like-named read-outs stand apart in the source and are kept apart here.

Tested on: hypoxia-inducible endogenous VEGF expression
Assay: Hypoxia-inducible endogenous VEGF expression ELISA in HeLa cells, dose-response EC50 (Table 3)
Format: cell-based, human
Description: The ability of the Compounds to modulate hypoxia-inducible endogenous VEGF expression may be analyzed as follows. VEGF protein levels may be monitored by an ELISA assay (R&D Systems). Briefly, HeLa cells may be cultured for 24-48 hours under hypoxic conditions (1% O2, 5% CO2, balanced with nitrogen) in the presence or absence of a Compound. The conditioned media may then be assayed by ELISA, and the concentration of VEGF calculated from the standard ELISA curve of each assay.
A dose-response analysis may be performed using the ELISA assay and conditions described above. The conditions for the dose-response ELISA are analogous to those described above. A series of, e.g., seven different concentrations may be analyzed. In parallel, a dose-response cytotoxicity assay may be performed using Cell Titer Glo (Promega) under the same conditions as the ELISA to ensure that the inhibition of VEGF expression was not due to the cytotoxicity.

[1] = Homo sapiens, HeLa cells, hypoxic conditions (1% O2), 24-48 hours, VEGF in conditioned media, read-out: ELISA EC50
[2] = Homo sapiens, HeLa, read-out: ELISA EC50 μM
[3] = HeLa cells, hypoxic conditions (1% O2), 24-48 hours, VEGF in conditioned media, read-out: ELISA EC50

Row | SMILES | EC50 [1] [µM] | further results
1 | COc1ccc(OC(=O)N2CCc3c([nH]c4ccc(Br)cc34)[C@@H]2c2ccc(Cl)cc2)cc1 [#332] | > 1 | –
2 | O=C(Oc1ccc(F)cc1)N1CCc2c([nH]c3ccc(Cl)cc23)C1c1ccc(OCCNc2nccs2)cc1 (centres unmarked) [#837] | < 0.008 | –
3 | Cc1cnc(NCCOc2ccc(C3c4[nH]c5ccc(Cl)cc5c4CCN3C(=O)Oc3ccc(F)cc3)cc2)s1 (centres unmarked) [#838] | < 0.008 | –
4 | O=C(Oc1ccc(Cl)cc1)N1CCc2c([nH]c3ccc(Cl)cc23)C1c1ccc(OCCNc2nccs2)cc1 (centres unmarked) [#841] | < 0.008 | –
5 | Cc1cnc(NCCOc2ccc(C3c4[nH]c5ccc(Cl)cc5c4CCN3C(=O)Oc3ccc(Cl)cc3)cc2)s1 (centres unmarked) [#842] | < 0.008 | –
6 | O=C(Oc1ccc(Cl)cc1)N1CCc2c([nH]c3ccc(Cl)cc23)C1c1ccc(OCCNc2cccnc2)cc1 (centres unmarked) [#843] | < 0.008 | –
7 | COc1ccc(C2c3[nH]c4ccc(Cl)cc4c3CCN2C(=O)Oc2ccc(C)cc2)cc1 (centres unmarked) [Compound 17] | < 0.008 | –
8 | COc1ccc(C2c3[nH]c4ccc(Cl)cc4c3CCN2C(=O)Oc2ccccc2)cc1 (centres unmarked) [Compound 60] | 0.008 to 0.04 | –
9 | O=C(Oc1ccccc1)N1CCc2c([nH]c3ccc(Br)cc23)C1c1ccccc1 (centres unmarked) [Compound 76] | 0.008 to 0.04 | –
10 | O=C(Oc1ccccc1)N1CCc2c([nH]c3ccc(Cl)cc23)C1c1ccccc1 (centres unmarked) [Compound 121] | 0.008 to 0.04 | –
11 | COc1ccc(C2c3[nH]c4ccc(Cl)cc4c3CCN2C(=O)O[C@H]2C[C@@H](C)CC[C@@H]2C(C)C)cc1 (some centres unmarked) [Compound 192] | 0.2 to 1 | –
12 | O=C(Oc1ccc(Cl)cc1)N1CCc2c([nH]c3ccc(Cl)cc23)C1c1ccc(OCCN2CCOCC2)cc1 (centres unmarked) [Compound 331] | – | EC50 [2]: > 1 µM
13 | COc1ccc(C2c3[nH]c4ccc(C)cc4c3CCN2C(=O)Oc2ccc(Cl)cc2)cc1 (centres unmarked) [Compound 341] | 0.04 to 0.2 | –
14 | Cc1ccc2[nH]c3c(c2c1)CCN(C(=O)Oc1ccc(Cl)cc1)C3c1ccc(C(C)C)cc1 (centres unmarked) [Compound 344] | 0.008 to 0.04 | –
15 | O=C(Oc1ccc(Cl)cc1)N1CCc2c([nH]c3ccc(Cl)cc23)C1c1ccc(S(=O)(=O)N2CCOCC2)cc1 (centres unmarked) [Compound 346] | 0.008 to 0.04 | –
16 | Cc1ccc(C2c3[nH]c4ccc(Cl)cc4c3CCN2C(=O)Oc2ccc(Cl)cc2)cc1 (centres unmarked) [Compound 347] | < 0.008 | –
17 | CC(C)c1ccc(C2c3[nH]c4ccc(Cl)cc4c3CCN2C(=O)Oc2ccc(Cl)cc2)cc1 (centres unmarked) [Compound 348] | < 0.008 | –
18 | N#Cc1ccc(C2c3[nH]c4ccc(Cl)cc4c3CCN2C(=O)Oc2ccc(Cl)cc2)cc1 (centres unmarked) [Compound 350] | < 0.008 | –
19 | O=C(Oc1ccc(Cl)cc1)N1CCc2c([nH]c3ccc(Cl)cc23)C1c1ccc(Cl)cc1 (centres unmarked) [Compound 351] | 0.008 to 0.04 | –
20 | Cc1ccc(C2c3[nH]c4ccc(Br)cc4c3CCN2C(=O)Oc2ccc(Cl)cc2)cc1 (centres unmarked) [Compound 353] | < 0.008 | –
21 | CC(C)c1ccc(C2c3[nH]c4ccc(Br)cc4c3CCN2C(=O)Oc2ccc(Cl)cc2)cc1 (centres unmarked) [Compound 354] | < 0.008 | –
22 | COc1ccc(C2c3[nH]c4ccc(Br)cc4c3CCN2C(=O)Oc2ccc(Cl)cc2)cc1 (centres unmarked) [Compound 355] | < 0.008 | –
23 | COc1ccc(OC(=O)N2CCc3c([nH]c4ccc(Cl)cc34)C2c2ccc(S(C)(=O)=O)cc2)cc1 (centres unmarked) [Compound 359] | 0.04 to 0.2 | –

Row | SMILES | EC50 [1] [µM] | further results
24 | CS(=O)(=O)c1ccc(C2c3[nH]c4ccc(Cl)cc4c3CCN2C(=O)Oc2ccc(Cl)cc2)cc1 (centres unmarked) [Compound 360] | 0.008 to 0.04 | –
25 | O=C(COc1ccc(C2c3[nH]c4ccc(Cl)cc4c3CCN2C(=O)Oc2ccccc2)cc1)Oc1ccccc1 (centres unmarked) [Compound 366] | > 1 | –
26 | COCCOc1ccc(C2c3[nH]c4ccc(Cl)cc4c3CCN2C(=O)Oc2ccc(F)cc2)cc1 (centres unmarked) [Compound 388] | < 0.008 | –
27 | O=C(Oc1ccc(Cl)cc1)N1CCc2c([nH]c3ccc(Cl)cc23)C1c1ccc(OCCCn2cncn2)cc1 (centres unmarked) [Compound 391] | < 0.008 | –
28 | COC(=O)c1ccc(C2c3[nH]c4ccc(Cl)cc4c3CCN2C(=O)Oc2ccc(F)cc2)cc1 (centres unmarked) [Compound 395] | < 0.008 | –
29 | O=C(Oc1ccc(F)cc1)N1CCc2c([nH]c3ccc(Br)cc23)C1c1ccc(C(F)(F)F)cc1 (centres unmarked) [Compound 397] | < 0.008 | –
30 | Cc1ccc(C2c3[nH]c4ccc(Br)cc4c3CCN2C(=O)Oc2ccc(F)cc2)cc1 (centres unmarked) [Compound 398] | < 0.008 | –
31 | C=CCOc1ccc(C2c3[nH]c4ccc(Cl)cc4c3CCN2C(=O)Oc2ccc(Cl)cc2)cc1 (centres unmarked) [Compound 400] | – | EC50 [3]: < 0.008 µM
32 | COc1ccc(C2c3[nH]c4ccc(Cl)cc4c3CCN2C(=O)Oc2ccc(F)cc2)cc1 (centres unmarked) [Compound 401] | < 0.008 | –
33 | Cc1ccc(C2c3[nH]c4ccc(Br)cc4c3CCN2C(=O)Oc2ccc(F)cc2)cc1 (centres unmarked) [Compound 403] | – | EC50 [3]: < 0.008 µM
34 | O=C(Oc1ccc(Cl)cc1)N1CCc2c([nH]c3ccc(Br)cc23)C1c1ccc(C(F)(F)F)cc1 (centres unmarked) [Compound 405] | < 0.008 | –
35 | C=CCOc1ccc(C2c3[nH]c4ccc(Cl)cc4c3CCN2C(=O)Oc2ccc(F)cc2)cc1 (centres unmarked) [Compound 409] | < 0.008 | –
36 | COc1ccc(C2c3[nH]c4ccc(Cl)cc4c3CCN2C(=O)Oc2ccc(F)cc2)cc1 (centres unmarked) [Compound 410] | – | EC50 [3]: < 0.008 µM
37 | C=CCOc1ccc(C2c3[nH]c4ccc(Cl)cc4c3CCN2C(=O)Oc2ccccc2)cc1 (centres unmarked) [Compound 413] | < 0.008 | –
38 | CC(=O)N1CCN(CC(O)COc2ccc(C3c4[nH]c5ccc(Cl)cc5c4CCN3C(=O)Oc3ccc(Cl)cc3)cc2)CC1 (centres unmarked) [Compound 415] | – | EC50 [2]: < 0.008 µM
39 | O=C(Oc1ccc(Cl)cc1)N1CCc2c([nH]c3ccc(Cl)cc23)C1c1ccc(OCCCn2ccnn2)cc1 (centres unmarked) [Compound 417] | < 0.008 | –
40 | COCCOc1ccc(C2c3[nH]c4ccc(Cl)cc4c3CCN2C(=O)Oc2ccc(Cl)cc2)cc1 (centres unmarked) [Compound 418] | < 0.008 | –
41 | O=C1OCC(COc2ccc(C3c4[nH]c5ccc(Cl)cc5c4CCN3C(=O)Oc3ccc(Cl)cc3)cc2)O1 (centres unmarked) [Compound 421] | < 0.008 | –
42 | O=C(Oc1ccc(F)cc1)N1CCc2c([nH]c3ccc(Br)cc23)C1c1ccc(C(F)(F)F)cc1 (centres unmarked) [Compound 426] | – | EC50 [3]: < 0.008 µM
43 | O=C(Oc1ccc(Cl)cc1)N1CCc2c([nH]c3ccc(Cl)cc23)C1c1ccc(I)cc1 (centres unmarked) [Compound 428] | < 0.008 | –
44 | O=C(Oc1ccc(Cl)cc1)N1CCc2c([nH]c3ccc(Cl)cc23)C1c1ccc(OCCCN2CCCC2)cc1 (centres unmarked) [Compound 429] | – | EC50 [2]: < 0.008 µM
45 | C=CCOc1ccc(C2c3[nH]c4ccc(Cl)cc4c3CCN2C(=O)Oc2ccc(OC)cc2)cc1 (centres unmarked) [Compound 432] | < 0.008 | –
46 | O=C(Oc1ccc(Cl)cc1)N1CCc2c([nH]c3ccc(Cl)cc23)C1c1ccc(OCCCN2CCCCC2)cc1 (centres unmarked) [Compound 433] | – | EC50 [2]: < 0.008 µM

Row | SMILES | EC50 [1] [µM] | further results
47 | COCCOc1ccc(C2c3[nH]c4ccc(Cl)cc4c3CCN2C(=O)Oc2ccccc2)cc1 (centres unmarked) [Compound 436] | < 0.008 | –
48 | O=C(Nc1ccc(C2c3[nH]c4ccc(Cl)cc4c3CCN2C(=O)Oc2ccc(Cl)cc2)cc1)c1ccco1 (centres unmarked) [Compound 437] | < 0.008 | –
49 | O=C(Oc1ccc(Cl)cc1)N1CCc2c([nH]c3ccc(Cl)cc23)C1c1ccc(NC2CCOCC2)cc1 (centres unmarked) [Compound 440] | < 0.008 | –
50 | O=C(Oc1ccc(Cl)cc1)N1CCc2c([nH]c3ccc(Cl)cc23)C1c1ccc(F)cc1 (centres unmarked) [Compound 444] | 0.008 to 0.04 | –
51 | O=C(Oc1ccc(Cl)cc1)N1CCc2c([nH]c3ccc(Cl)cc23)C1c1ccc(S(=O)(=O)N2CCOCC2)cc1 (centres unmarked) [Compound 450] | – | EC50 [3]: 0.008 to 0.04 µM
52 | O=C(Oc1ccc(F)cc1)N1CCc2c([nH]c3ccc(Cl)cc23)C1c1ccc(F)cc1 (centres unmarked) [Compound 452] | 0.008 to 0.04 | –
53 | O=C(CN1CCOCC1)Nc1ccc(C2c3[nH]c4ccc(Cl)cc4c3CCN2C(=O)Oc2ccc(Cl)cc2)cc1 (centres unmarked) [Compound 454] | – | EC50 [2]: 0.008 to 0.04 µM
54 | COc1ccc(OC(=O)N2CCc3c([nH]c4ccc(Cl)cc34)C2c2ccc(S(=O)(=O)N3CCOCC3)cc2)cc1 (centres unmarked) [Compound 455] | 0.008 to 0.04 | –
55 | O=C(Oc1ccc(Cl)cc1)N1CCc2c([nH]c3ccc(Cl)cc23)C1c1ccc(OCC2CO2)cc1 (centres unmarked) [Compound 460] | 0.008 to 0.04 | –
56 | O=C(Oc1ccc(Cl)cc1)N1CCc2c([nH]c3ccc(Cl)cc23)C1c1ccc(OCC(O)CN2CCCC2)cc1 (centres unmarked) [Compound 462] | – | EC50 [2]: 0.008 to 0.04 µM
57 | CC(=O)Oc1ccc(C2c3[nH]c4ccc(Cl)cc4c3CCN2C(=O)Oc2ccc(Cl)cc2)cc1 (centres unmarked) [Compound 463] | 0.008 to 0.04 | –
58 | COCCOc1ccc(C2c3[nH]c4ccc(Cl)cc4c3CCN2C(=O)Oc2ccc(OC)cc2)cc1 (centres unmarked) [Compound 465] | 0.008 to 0.04 | –
59 | CCOC(=O)Nc1ccc(C2c3[nH]c4ccc(Cl)cc4c3CCN2C(=O)Oc2ccc(Cl)cc2)cc1 (centres unmarked) [Compound 467] | 0.008 to 0.04 | –
60 | CN(C)CCCOc1ccc(C2c3[nH]c4ccc(Cl)cc4c3CCN2C(=O)Oc2ccc(Br)cc2)cc1 (centres unmarked) [Compound 468] | – | EC50 [2]: 0.008 to 0.04 µM
61 | COCCOC(=O)Nc1ccc(C2c3[nH]c4ccc(Cl)cc4c3CCN2C(=O)Oc2ccc(Cl)cc2)cc1 (centres unmarked) [Compound 470] | 0.008 to 0.04 | –
62 | CN(C)CCCOc1ccc(C2c3[nH]c4ccc(Cl)cc4c3CCN2C(=O)Oc2ccc(Cl)cc2)cc1 (centres unmarked) [Compound 479] | – | EC50 [2]: 0.04 to 0.2 µM
63 | CC(C)C(=O)Nc1ccc(C2c3[nH]c4ccc(Cl)cc4c3CCN2C(=O)Oc2ccc(Cl)cc2)cc1 (centres unmarked) [Compound 482] | 0.04 to 0.2 | –
64 | CC(C)OC(=O)Nc1ccc(C2c3[nH]c4ccc(Cl)cc4c3CCN2C(=O)Oc2ccc(Cl)cc2)cc1 (centres unmarked) [Compound 489] | 0.04 to 0.2 | –
65 | CN(C)CC(=O)Nc1ccc(C2c3[nH]c4ccc(Cl)cc4c3CCN2C(=O)Oc2ccc(Cl)cc2)cc1 (centres unmarked) [Compound 491] | – | EC50 [2]: 0.04 to 0.2 µM
66 | CN(C)CCCOc1ccc(C2c3[nH]c4ccc(Cl)cc4c3CCN2C(=O)Oc2ccccc2)cc1 (centres unmarked) [Compound 493] | – | EC50 [2]: 0.04 to 0.2 µM
67 | C=CC(=O)Nc1ccc(C2c3[nH]c4ccc(Cl)cc4c3CCN2C(=O)Oc2ccc(Cl)cc2)cc1 (centres unmarked) [Compound 500] | 0.04 to 0.2 | –
68 | COc1ccc(OC(=O)N2CCc3c([nH]c4ccc(Cl)cc34)C2c2ccc(OCCCN(C)C)cc2)cc1 (centres unmarked) [Compound 501] | – | EC50 [2]: 0.04 to 0.2 µM
